Reference: patent US12139520B2 (priority 2020, dated 2024)
Numbered stars: 1 amine (or outer) side, 2 acyl side, 3 side chain; on linkers, the order of the positions; unused ones are H or OH. Bridge positions count the residues as written; N and C are the ends. Square brackets hold non-standard residues; d marks the D form. Peptide text beside a SMILES is read from it. * marks the point of attachment. C20 diacid = O=C(O)CCCCCCCCCCCCCCCCCCC(=O)*; γGlu = O=C(O)[C@H](CCC(=O)[*:2])N[*:1]; Hyp = O=C(O)[C@@H]1C[C@@H](O)CN1

What was measured:
hAM1 receptor = hAM1 receptor (Homo sapiens, UniProt O60895+Q16602); experiment: cAMP assay for in vitro receptor activation, hAM1-R; assay type: cell-based; settings: cAMP assay, hAM1 receptor; read-out: hAM1R EC50
Sequence of hAM1 receptor (Q16602 23-461): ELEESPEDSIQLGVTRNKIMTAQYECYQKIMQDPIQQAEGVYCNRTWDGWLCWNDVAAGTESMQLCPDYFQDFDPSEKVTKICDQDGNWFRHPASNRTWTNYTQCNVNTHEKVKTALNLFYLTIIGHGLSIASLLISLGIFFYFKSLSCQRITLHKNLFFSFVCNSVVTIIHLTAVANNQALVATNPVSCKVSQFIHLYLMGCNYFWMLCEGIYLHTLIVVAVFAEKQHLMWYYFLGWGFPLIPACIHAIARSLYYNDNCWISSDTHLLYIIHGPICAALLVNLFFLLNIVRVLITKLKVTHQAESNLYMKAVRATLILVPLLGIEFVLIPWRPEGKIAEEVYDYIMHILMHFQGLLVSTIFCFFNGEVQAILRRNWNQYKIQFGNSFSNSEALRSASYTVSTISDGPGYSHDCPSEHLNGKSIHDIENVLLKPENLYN
Sequence of hAM1 receptor (O60895 43-175 partner): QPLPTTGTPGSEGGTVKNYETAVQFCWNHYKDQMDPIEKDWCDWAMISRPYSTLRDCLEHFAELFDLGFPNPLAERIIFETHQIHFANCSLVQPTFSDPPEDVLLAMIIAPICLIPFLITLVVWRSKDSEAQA
Experimental: General Protocols for cAMP Assays for Measuring In Vitro Receptor Activation
Cells stably overexpressing the hAM1 receptor were obtained from Ogeda (now Astellas Pharma), sub-cloned and a monoclonal cell-line with an appropriate assay-window was expanded, aliquoted and frozen. An aliquot was thawed and plated in DPBS with 0.05% casein and 0.5 mM IBMX as 8000 cells/well in a 384-well format.

hAMY3 receptor = target: T1, hAMY3 receptor (Homo sapiens, UniProt O60896+P30988); experiment: cAMP assay for in vitro receptor activation, hAMY3-R; assay type: cell-based; settings: cAMP assay, hAMY3 receptor; read-out: hAMY3R EC50
T1 sequence (P30988 25-474): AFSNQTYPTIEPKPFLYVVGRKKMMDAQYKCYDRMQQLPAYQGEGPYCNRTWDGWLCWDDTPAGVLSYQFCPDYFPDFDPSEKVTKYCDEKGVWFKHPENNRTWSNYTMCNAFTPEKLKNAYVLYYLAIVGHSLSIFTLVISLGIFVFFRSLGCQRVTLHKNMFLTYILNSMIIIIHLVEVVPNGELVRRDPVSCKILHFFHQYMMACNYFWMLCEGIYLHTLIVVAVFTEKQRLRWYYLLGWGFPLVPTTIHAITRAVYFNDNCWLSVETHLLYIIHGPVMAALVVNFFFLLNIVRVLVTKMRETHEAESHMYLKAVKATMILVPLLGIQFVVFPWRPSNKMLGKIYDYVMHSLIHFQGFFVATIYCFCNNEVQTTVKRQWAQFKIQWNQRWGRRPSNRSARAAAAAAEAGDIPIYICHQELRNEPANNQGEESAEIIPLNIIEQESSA
T1 sequence (O60896 24-148 partner): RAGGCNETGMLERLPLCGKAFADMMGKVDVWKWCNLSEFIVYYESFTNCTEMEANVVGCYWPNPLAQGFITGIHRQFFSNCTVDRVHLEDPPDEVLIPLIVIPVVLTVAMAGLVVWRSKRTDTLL
Method in brief: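 Accumulated cAMP was detected by time-resolved FRET one hour after reagent addition. Beforehand, hAMY3-R-overexpressing monoclonal cells (2000/well, DPBS, 0.05% casein, 0.5 mM IBMX) received graded doses of compound for 30 min at room temperature; human amylin served as positive control.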

| EC50 (hAM1 receptor) | EC50 (hAMY3 receptor) | Compound |
| --- | --- | --- |
| > 5000 nM | 0.006 nM | CC[C@H](C)[C@H](NC(=O)[C@H](CCC(N)=O)NC(=O)[C@H](CC(=O)O)NC(=O)[C@H](C)NC(=O)[C@H](CC(C)C)NC(=O)[C@H](CCCNC(=N)N)NC(=O)[C@H](C)NC(=O)[C@@H](NC(=O)[C@@H](NC(=O)[C@@H]1CSSC[C@H](NC(=O)[C@@H](N)CCCCN)C(=O)N[C@@H](CC(N)=O)C(=O)N[C@@H]([C@@H](C)O)C(=O)N[C@@H](CO)C(=O)N[C@@H]([C@@H](C)O)C(=O)N1)[C@@H](C)O)C(C)C)C(=O)N[C@H](C(=O)N[C@@H](CCC(N)=O)C(=O)N[C@@H](Cc1ccccc1)C(=O)N[C@@H](CO)C(=O)N[C@@H](CC(N)=O)C(=O)N[C@@H](CCCCN)C(=O)N[C@@H](CC(=O)O)C(=O)N[C@@H](CCCCN)C(=O)N[C@@H](C)C(=O)N[C@@H](CCC(N)=O)C(=O)N[C@H](C(=O)N[C@@H](CO)C(=O)N1CCC[C@H]1C(=O)N1CCC[C@H]1C(=O)N[C@H](C(=O)N[C@@H](CCC(=O)O)C(=O)N[C@H](C(=O)NCC(=O)N1CCC[C@H]1C(=O)N[C@@H](CC(N)=O)C(=O)N[C@@H](CO)C(=O)N1C[C@H](O)C[C@H]1C(N)=O)C(C)C)[C@@H](C)O)C(C)C)[C@@H](C)O [compound 8] (H-KCNTSTCTVARLADQITQFSNKDKAQVSPPTEVGPNS[Hyp]-NH2; disulfide 2-7; N-terminus assumed) |
| > 5000 nM | 0.021 nM | CC[C@H](C)[C@H](NC(=O)[C@H](CCC(N)=O)NC(=O)[C@H](Cc1c[nH]cn1)NC(=O)[C@H](C)NC(=O)[C@H](CC(C)C)NC(=O)[C@H](CCCNC(=N)N)NC(=O)[C@H](CC(=O)O)NC(=O)[C@@H](NC(=O)[C@@H](NC(=O)[C@@H]1CSSC[C@H](NC(=O)[C@H](CCCCN)NC(=O)CC[C@H](NC(=O)CCCCCCCCCCCCCCCCCCC(=O)O)C(=O)O)C(=O)N[C@@H](CC(N)=O)C(=O)N[C@@H]([C@@H](C)O)C(=O)N[C@@H](C)C(=O)N[C@@H]([C@@H](C)O)C(=O)N1)[C@@H](C)O)C(C)C)C(=O)N[C@@H](C)C(=O)N[C@@H](CCC(N)=O)C(=O)N[C@@H](Cc1ccccc1)C(=O)N[C@H](C(=O)N[C@@H](CC(=O)O)C(=O)N[C@@H](CCCCN)C(=O)N[C@@H](CC(=O)O)C(=O)N[C@@H](CCCCN)C(=O)N[C@@H](CC(=O)O)C(=O)N[C@@H](CC(N)=O)C(=O)N[C@H](C(=O)N[C@@H](C)C(=O)N1CCC[C@H]1C(=O)N1CCC[C@H]1C(=O)N[C@H](C(=O)N[C@@H](CC(N)=O)C(=O)N[C@H](C(=O)NCC(=O)N[C@@H](CO)C(=O)N[C@@H](CC(N)=O)C(=O)NCC(=O)N1C[C@H](O)C[C@H]1C(N)=O)C(C)C)[C@@H](C)O)C(C)C)[C@@H](C)O [compound 112] ({C20 diacid-γGlu}-KCNTATCTVDRLAHQIAQFTDKDKDNVAPPTNVGSNG[Hyp]-NH2; disulfide 2-7) |
| > 5000 nM | 0.016 nM | CC[C@H](C)[C@H](NC(=O)[C@H](CCC(N)=O)NC(=O)[C@H](CCC(=O)O)NC(=O)[C@H](C)NC(=O)[C@H](CC(C)C)NC(=O)[C@H](CCCNC(=N)N)NC(=O)[C@H](CCC(N)=O)NC(=O)[C@@H](NC(=O)[C@@H](NC(=O)[C@@H]1CSSC[C@H](NC(=O)[C@H](CCCCN)NC(=O)CC[C@H](NC(=O)CCCCCCCCCCCCCCCCCCC(=O)O)C(=O)O)C(=O)N[C@@H](CC(N)=O)C(=O)N[C@@H]([C@@H](C)O)C(=O)N[C@@H](C)C(=O)N[C@@H]([C@@H](C)O)C(=O)N1)[C@@H](C)O)C(C)C)C(=O)N[C@@H](Cc1ccc(O)cc1)C(=O)N[C@@H](CCC(N)=O)C(=O)N[C@@H](Cc1ccccc1)C(=O)N[C@H](C(=O)N[C@@H](CC(=O)O)C(=O)N[C@@H](CCCCN)C(=O)N[C@@H](CC(=O)O)C(=O)N[C@@H](CCCCN)C(=O)N[C@@H](CC(=O)O)C(=O)N[C@@H](CC(N)=O)C(=O)N[C@H](C(=O)N[C@@H](C)C(=O)N1CCC[C@H]1C(=O)N1CCC[C@H]1C(=O)N[C@H](C(=O)N[C@@H](CC(N)=O)C(=O)N[C@H](C(=O)NCC(=O)N[C@@H](CO)C(=O)N[C@@H](CC(N)=O)C(=O)N[C@H](C(=O)N1C[C@H](O)C[C@H]1C(N)=O)[C@@H](C)O)C(C)C)[C@@H](C)O)C(C)C)[C@@H](C)O [compound 96] ({C20 diacid-γGlu}-KCNTATCTVQRLAEQIYQFTDKDKDNVAPPTNVGSNT[Hyp]-NH2; disulfide 2-7) |
| > 5000 nM | 0.018 nM | CC[C@H](C)[C@H](NC(=O)[C@H](CCC(N)=O)NC(=O)[C@H](Cc1c[nH]cn1)NC(=O)[C@H](C)NC(=O)[C@H](CC(C)C)NC(=O)[C@H](CCCNC(=N)N)NC(=O)[C@H](CCC(N)=O)NC(=O)[C@@H](NC(=O)[C@@H](NC(=O)[C@@H]1CSSC[C@H](NC(=O)[C@@H](N)CCCCN)C(=O)N[C@@H](CC(N)=O)C(=O)N[C@@H]([C@@H](C)O)C(=O)N[C@@H](C)C(=O)N[C@@H]([C@@H](C)O)C(=O)N1)[C@@H](C)O)C(C)C)C(=O)N[C@@H](Cc1ccc(O)cc1)C(=O)N[C@@H](CCC(N)=O)C(=O)N[C@@H](Cc1ccccc1)C(=O)N[C@H](C(=O)N[C@@H](CC(=O)O)C(=O)N[C@@H](CCCCN)C(=O)N[C@@H](CC(=O)O)C(=O)N[C@@H](CCCCN)C(=O)N[C@@H](CC(=O)O)C(=O)N[C@@H](CC(N)=O)C(=O)N[C@H](C(=O)N[C@@H](C)C(=O)N1CCC[C@H]1C(=O)N[C@@H](CCCNC(=N)N)C(=O)N[C@H](C(=O)N[C@@H](CCC(=O)O)C(=O)N[C@H](C(=O)NCC(=O)N[C@@H](CO)C(=O)N[C@@H](CC(N)=O)C(=O)NCC(=O)N[C@@H](Cc1ccc(O)cc1)C(N)=O)C(C)C)[C@@H](C)O)C(C)C)[C@@H](C)O [compound 102] (H-KCNTATCTVQRLAHQIYQFTDKDKDNVAPRTEVGSNGY-NH2; disulfide 2-7; N-terminus assumed) |
| > 5000 nM |  | CC[C@H](C)[C@H](NC(=O)[C@H](CCCCN)NC(=O)[C@H](CO)NC(=O)[C@H](CCCNC(=N)N)NC(=O)[C@@H]1CCCN1C(=O)[C@H](C)NC(=O)[C@@H](NC(=O)[C@H](CC(N)=O)NC(=O)[C@H](CC(=O)O)NC(=O)[C@H](CCCCN)NC(=O)[C@H](CC(=O)O)NC(=O)[C@H](CCCCN)NC(=O)[C@H](CC(=O)O)NC(=O)[C@@H](NC(=O)[C@H](Cc1ccccc1)NC(=O)[C@H](CCC(N)=O)NC(=O)[C@@H](NC(=O)[C@H](CC(C)C)NC(=O)[C@H](Cc1ccccc1)NC(=O)[C@H](CC(N)=O)NC(=O)[C@H](C)NC(=O)[C@H](CC(C)C)NC(=O)[C@H](CCCNC(=N)N)NC(=O)[C@H](CCC(N)=O)NC(=O)[C@@H](NC(=O)[C@H](C)NC(=O)[C@@H]1CSSC[C@H](NC(=O)[C@@H](N)CCCCN)C(=O)N[C@@H](CC(N)=O)C(=O)N[C@@H]([C@@H](C)O)C(=O)N[C@@H](C)C(=O)N[C@@H]([C@@H](C)O)C(=O)N1)[C@@H](C)O)C(C)C)[C@@H](C)O)C(C)C)C(=O)N[C@@H](CO)C(=O)N1CCC[C@H]1C(=O)N[C@@H](CCC(N)=O)C(=O)NCC(=O)N[C@@H](Cc1ccc(O)cc1)C(N)=O [compound 234] (H-KCNTATCATQRLANFLVQFTDKDKDNVAPRSKISPQGY-NH2; disulfide 2-7; N-terminus assumed) |
